Assay results: ChEMBL document CHEMBL6078681, “Discovery and Optimization of Dihydroquinolin-2(1H)-ones as Novel Highly Selective and Orally Bioavailable Phosphodiesterase 5 Inhibitors for the Treatment of Pulmonary Arterial Hypertension” (J Med Chem, 2024)
Activity calls are given as the source filed them. No cut-off for these calls is given here.

Assays:
[1] = target: T1, cGMP-specific 3',5'-cyclic phosphodiesterase (Homo sapiens, UniProt O76074); experiment: Inhibition of PDE5A (unknown origin) using […] as substrate incubated for 1 hr by fluorescence polarization assay
[2] = target: Dual specificity calcium/calmodulin-dependent 3',5'-cyclic nucleotide phosphodiesterase 1C (Homo sapiens, UniProt Q14123); experiment: Inhibition of PDE1C (unknown origin) using FAM-cAMP as substrate incubated for 1 hr by fluorescence polarization assay
Sequence of Dual specificity calcium/calmodulin-dependent 3',5'-cyclic nucleotide phosphodiesterase 1C (Q14123 whole entry): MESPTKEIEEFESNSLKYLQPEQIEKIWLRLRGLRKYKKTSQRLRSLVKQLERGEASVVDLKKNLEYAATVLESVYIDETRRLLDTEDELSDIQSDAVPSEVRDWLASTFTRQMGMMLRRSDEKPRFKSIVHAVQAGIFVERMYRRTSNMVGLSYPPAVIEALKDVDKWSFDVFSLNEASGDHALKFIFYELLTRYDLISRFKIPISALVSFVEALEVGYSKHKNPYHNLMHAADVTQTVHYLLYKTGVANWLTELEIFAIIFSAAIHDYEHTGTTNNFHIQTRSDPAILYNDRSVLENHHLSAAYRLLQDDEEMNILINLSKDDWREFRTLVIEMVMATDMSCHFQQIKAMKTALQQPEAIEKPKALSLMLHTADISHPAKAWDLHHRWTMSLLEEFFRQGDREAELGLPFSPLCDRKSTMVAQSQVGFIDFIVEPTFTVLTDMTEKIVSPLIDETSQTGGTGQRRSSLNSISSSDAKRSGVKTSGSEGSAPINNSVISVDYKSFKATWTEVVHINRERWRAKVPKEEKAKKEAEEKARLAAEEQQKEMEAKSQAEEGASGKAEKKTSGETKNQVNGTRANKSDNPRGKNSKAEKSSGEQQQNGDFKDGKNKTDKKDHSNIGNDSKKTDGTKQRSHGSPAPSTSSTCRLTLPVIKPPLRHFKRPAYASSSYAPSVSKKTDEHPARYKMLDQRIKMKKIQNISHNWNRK

[3] = target: cGMP-dependent 3',5'-cyclic phosphodiesterase (Homo sapiens, UniProt O00408); experiment: Inhibition of PDE2A (unknown origin) using FAM-cAMP as substrate incubated for 1 hr by fluorescence polarization assay
Sequence of cGMP-dependent 3',5'-cyclic phosphodiesterase (O00408 whole entry): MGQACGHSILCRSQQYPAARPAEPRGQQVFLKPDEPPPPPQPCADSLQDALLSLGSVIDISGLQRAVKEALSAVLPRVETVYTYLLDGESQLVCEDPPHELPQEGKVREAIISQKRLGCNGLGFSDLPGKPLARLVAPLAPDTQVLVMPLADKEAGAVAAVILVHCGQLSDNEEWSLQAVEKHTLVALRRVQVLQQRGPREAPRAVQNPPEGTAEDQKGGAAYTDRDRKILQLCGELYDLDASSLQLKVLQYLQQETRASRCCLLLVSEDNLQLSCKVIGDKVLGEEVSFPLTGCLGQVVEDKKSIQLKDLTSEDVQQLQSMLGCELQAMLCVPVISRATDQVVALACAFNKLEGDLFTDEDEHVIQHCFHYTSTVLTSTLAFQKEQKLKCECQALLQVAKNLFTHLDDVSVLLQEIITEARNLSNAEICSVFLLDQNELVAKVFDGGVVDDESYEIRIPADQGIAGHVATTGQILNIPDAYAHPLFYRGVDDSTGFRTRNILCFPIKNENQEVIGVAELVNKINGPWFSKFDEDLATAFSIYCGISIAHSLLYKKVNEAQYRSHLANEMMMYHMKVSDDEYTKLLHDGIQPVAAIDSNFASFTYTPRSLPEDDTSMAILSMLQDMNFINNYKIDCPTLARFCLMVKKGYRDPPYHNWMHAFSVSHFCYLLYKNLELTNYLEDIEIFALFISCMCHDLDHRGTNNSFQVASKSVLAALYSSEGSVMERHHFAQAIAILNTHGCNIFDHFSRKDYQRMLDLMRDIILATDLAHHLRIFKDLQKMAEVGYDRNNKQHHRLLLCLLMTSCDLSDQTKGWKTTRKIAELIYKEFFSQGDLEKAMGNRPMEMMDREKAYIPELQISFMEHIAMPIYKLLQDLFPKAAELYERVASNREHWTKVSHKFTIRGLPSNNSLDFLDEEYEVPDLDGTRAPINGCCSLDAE

[4] = target: cGMP-inhibited 3',5'-cyclic phosphodiesterase 3A (Homo sapiens, UniProt Q14432); experiment: Inhibition of PDE3A (unknown origin) using FAM-cAMP as substrate incubated for 1 hr by fluorescence polarization assay
Sequence of cGMP-inhibited 3',5'-cyclic phosphodiesterase 3A (Q14432 whole entry): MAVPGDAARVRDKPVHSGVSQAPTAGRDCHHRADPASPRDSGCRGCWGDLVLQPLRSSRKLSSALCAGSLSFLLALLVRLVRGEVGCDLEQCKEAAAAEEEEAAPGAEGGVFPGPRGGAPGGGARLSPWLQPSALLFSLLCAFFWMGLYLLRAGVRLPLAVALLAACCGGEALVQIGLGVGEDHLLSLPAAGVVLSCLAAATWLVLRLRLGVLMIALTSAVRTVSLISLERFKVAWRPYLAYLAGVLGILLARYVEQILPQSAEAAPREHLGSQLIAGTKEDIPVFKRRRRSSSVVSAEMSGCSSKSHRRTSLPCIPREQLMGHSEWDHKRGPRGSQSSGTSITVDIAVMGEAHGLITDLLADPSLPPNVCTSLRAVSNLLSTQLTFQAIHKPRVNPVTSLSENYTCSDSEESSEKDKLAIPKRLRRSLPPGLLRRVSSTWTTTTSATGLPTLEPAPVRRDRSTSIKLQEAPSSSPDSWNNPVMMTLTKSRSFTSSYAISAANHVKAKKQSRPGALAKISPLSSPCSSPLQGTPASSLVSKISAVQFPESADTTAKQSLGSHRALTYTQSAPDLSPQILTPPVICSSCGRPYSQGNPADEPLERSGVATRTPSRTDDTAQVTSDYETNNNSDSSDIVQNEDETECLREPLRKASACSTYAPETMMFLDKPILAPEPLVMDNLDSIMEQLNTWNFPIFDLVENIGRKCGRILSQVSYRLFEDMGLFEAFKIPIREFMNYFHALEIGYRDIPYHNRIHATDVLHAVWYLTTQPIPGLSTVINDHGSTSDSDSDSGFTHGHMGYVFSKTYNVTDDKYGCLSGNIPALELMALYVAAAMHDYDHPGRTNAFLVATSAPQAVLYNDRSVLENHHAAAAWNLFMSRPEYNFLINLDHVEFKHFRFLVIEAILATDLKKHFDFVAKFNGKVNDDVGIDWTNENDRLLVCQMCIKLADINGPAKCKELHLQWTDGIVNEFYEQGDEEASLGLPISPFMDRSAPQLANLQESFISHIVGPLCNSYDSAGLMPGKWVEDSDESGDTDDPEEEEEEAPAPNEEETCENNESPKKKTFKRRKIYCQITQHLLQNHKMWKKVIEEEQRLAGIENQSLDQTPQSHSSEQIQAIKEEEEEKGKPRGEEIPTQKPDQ

[5] = target: 3',5'-cyclic-AMP phosphodiesterase 4D (Homo sapiens, UniProt Q08499); experiment: Inhibition of PDE4D2 (unknown origin) using FAM-cAMP as substrate incubated for 1 hr by fluorescence polarization assay
[6] = target: Cone cGMP-specific 3',5'-cyclic phosphodiesterase subunit alpha' (Homo sapiens, UniProt P51160); experiment: Inhibition of PDE6C (unknown origin) using […] as substrate incubated for 1 hr by fluorescence polarization assay
[7] = target: High affinity 3',5'-cyclic-AMP phosphodiesterase 7A (Homo sapiens, UniProt Q13946); experiment: Inhibition of PDE7A (unknown origin) using FAM-cAMP as substrate incubated for 1 hr by fluorescence polarization assay
[8] = target: High affinity cAMP-specific and IBMX-insensitive 3',5'-cyclic phosphodiesterase 8A (Homo sapiens, UniProt O60658); experiment: Inhibition of PDE8A1 (unknown origin) using FAM-cAMP as substrate incubated for 1 hr by fluorescence polarization assay
Sequence of High affinity cAMP-specific and IBMX-insensitive 3',5'-cyclic phosphodiesterase 8A (O60658 whole entry): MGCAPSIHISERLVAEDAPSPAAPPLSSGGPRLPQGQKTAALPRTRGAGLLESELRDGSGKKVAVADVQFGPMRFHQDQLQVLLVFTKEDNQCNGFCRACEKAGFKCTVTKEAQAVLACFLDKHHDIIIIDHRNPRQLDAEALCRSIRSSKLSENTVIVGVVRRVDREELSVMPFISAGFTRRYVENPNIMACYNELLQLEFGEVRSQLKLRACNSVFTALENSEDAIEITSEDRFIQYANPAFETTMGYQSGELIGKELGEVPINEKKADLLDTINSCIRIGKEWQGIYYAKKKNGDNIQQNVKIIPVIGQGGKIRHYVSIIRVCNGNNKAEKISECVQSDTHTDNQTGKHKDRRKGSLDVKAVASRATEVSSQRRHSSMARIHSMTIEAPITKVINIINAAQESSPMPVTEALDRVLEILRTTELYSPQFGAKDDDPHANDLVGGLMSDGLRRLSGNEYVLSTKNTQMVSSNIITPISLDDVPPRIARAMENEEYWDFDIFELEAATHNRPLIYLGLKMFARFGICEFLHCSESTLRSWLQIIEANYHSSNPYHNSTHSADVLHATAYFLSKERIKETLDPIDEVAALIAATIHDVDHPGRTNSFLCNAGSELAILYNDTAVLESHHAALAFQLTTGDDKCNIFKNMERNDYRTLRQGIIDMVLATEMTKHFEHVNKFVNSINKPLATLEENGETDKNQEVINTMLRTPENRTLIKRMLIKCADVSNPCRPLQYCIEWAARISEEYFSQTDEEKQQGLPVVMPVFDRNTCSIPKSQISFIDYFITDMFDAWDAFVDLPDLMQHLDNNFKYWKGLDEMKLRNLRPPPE

[9] = target: High affinity cGMP-specific 3',5'-cyclic phosphodiesterase 9A (Homo sapiens, UniProt O76083); experiment: Inhibition of PDE9A2 (unknown origin) using […] as substrate incubated for 1 hr by fluorescence polarization assay
Sequence of High affinity cGMP-specific 3',5'-cyclic phosphodiesterase 9A (O76083 whole entry): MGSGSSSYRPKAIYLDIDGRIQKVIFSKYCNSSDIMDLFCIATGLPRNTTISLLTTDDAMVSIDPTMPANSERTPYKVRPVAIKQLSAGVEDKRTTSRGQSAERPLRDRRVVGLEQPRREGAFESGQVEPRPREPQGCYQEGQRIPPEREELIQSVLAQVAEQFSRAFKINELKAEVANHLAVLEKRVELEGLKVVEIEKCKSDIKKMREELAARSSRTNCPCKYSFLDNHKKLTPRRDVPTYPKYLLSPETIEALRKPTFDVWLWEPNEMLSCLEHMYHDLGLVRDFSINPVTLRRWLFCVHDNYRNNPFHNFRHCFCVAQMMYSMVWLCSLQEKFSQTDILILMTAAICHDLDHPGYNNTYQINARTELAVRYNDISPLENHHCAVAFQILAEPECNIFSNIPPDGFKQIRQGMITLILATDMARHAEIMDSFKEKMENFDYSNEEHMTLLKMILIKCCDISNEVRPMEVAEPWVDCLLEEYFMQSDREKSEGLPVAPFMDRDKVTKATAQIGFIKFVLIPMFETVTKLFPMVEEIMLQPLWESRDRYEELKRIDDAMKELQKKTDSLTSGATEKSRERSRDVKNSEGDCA

[10] = target: cAMP and cAMP-inhibited cGMP 3',5'-cyclic phosphodiesterase 10A (Homo sapiens, UniProt Q9Y233); experiment: Inhibition of PDE10A2 (unknown origin) using FAM-cAMP as substrate incubated for 1 hr by fluorescence polarization assay
[11] = target: Dual 3',5'-cyclic-AMP and -GMP phosphodiesterase 11A (Homo sapiens, UniProt Q9HCR9); experiment: Inhibition of PDE11A (unknown origin) using FAM-cAMP as substrate incubated for 1 hr by fluorescence polarization assay
[12] = AUC (0 to t) in Sprague-Dawley rat at 2 mg/kg, iv measured for 5 to 1440 mins by LC-MS/MS analysis; assay type: ADME, organism-based; settings: in vivo, time 5-1440 min
[13] = AUC (0 to infinity) in Sprague-Dawley rat at 2 mg/kg, iv measured for 5 to 1440 mins by LC-MS/MS analysis; assay type: ADME, organism-based; settings: in vivo, time 5-1440 min
[14] = MRT (0 to t) in Sprague-Dawley rat at 2 mg/kg, iv measured for 5 to 1440 mins by LC-MS/MS analysis; assay type: ADME, organism-based; settings: in vivo, time 5-1440 min
[15] = MRT (0 to infinity) in Sprague-Dawley rat at 2 mg/kg, iv measured for 5 to 1440 mins by LC-MS/MS analysis; assay type: ADME, organism-based; settings: in vivo, time 5-1440 min
[16] = Half life in Sprague-Dawley rat at 2 mg/kg, iv measured for 5 to 1440 mins by LC-MS/MS analysis; assay type: ADME, organism-based; settings: in vivo, time 5-1440 min
[17] = Tmax in Sprague-Dawley rat at 2 mg/kg, iv measured for 5 to 1440 mins by LC-MS/MS analysis; assay type: ADME, organism-based; settings: in vivo, time 5-1440 min
[18] = Clearance in Sprague-Dawley rat at 2 mg/kg, iv measured for 5 to 1440 mins by LC-MS/MS analysis; assay type: ADME, organism-based; settings: in vivo, time 5-1440 min
[19] = Apparent volume of distribution in Sprague-Dawley rat at 2 mg/kg, iv measured for 5 to 1440 mins by LC-MS/MS analysis; assay type: ADME, organism-based; settings: in vivo, time 5-1440 min, read-out: Vz
[20] = Cmax in Sprague-Dawley rat at 2 mg/kg, iv measured for 5 to 1440 mins by LC-MS/MS analysis; assay type: ADME, organism-based; settings: in vivo, time 5-1440 min
[21] = AUC (0 to t) in Sprague-Dawley rat at 10 mg/kg, po measured for 5 to 1440 mins by LC-MS/MS analysis; assay type: ADME, organism-based; settings: in vivo, time 5-1440 min
[22] = AUC (0 to infinity) in Sprague-Dawley rat at 10 mg/kg, po measured for 5 to 1440 mins by LC-MS/MS analysis; assay type: ADME, organism-based; settings: in vivo, time 5-1440 min
[23] = MRT (0 to t) in Sprague-Dawley rat at 10 mg/kg, po measured for 5 to 1440 mins by LC-MS/MS analysis; assay type: ADME, organism-based; settings: in vivo, time 5-1440 min
[24] = MRT (0 to infinity) in Sprague-Dawley rat at 10 mg/kg, po measured for 5 to 1440 mins by LC-MS/MS analysis; assay type: ADME, organism-based; settings: in vivo, time 5-1440 min
[25] = Half life in Sprague-Dawley rat at 10 mg/kg, po measured for 5 to 1440 mins by LC-MS/MS analysis; assay type: ADME, organism-based; settings: in vivo, time 5-1440 min
[26] = Tmax in Sprague-Dawley rat at 10 mg/kg, po measured for 5 to 1440 mins by LC-MS/MS analysis; assay type: ADME, organism-based; settings: in vivo, time 5-1440 min
[27] = Clearance in Sprague-Dawley rat at 10 mg/kg, po measured for 5 to 1440 mins by LC-MS/MS analysis; assay type: ADME, organism-based; settings: in vivo, time 5-1440 min
[28] = Volume of distribution in Sprague-Dawley rat at 10 mg/kg, po measured for 5 to 1440 mins by LC-MS/MS analysis; assay type: ADME, organism-based; settings: in vivo, time 5-1440 min
[29] = Cmax in Sprague-Dawley rat at 10 mg/kg, po measured for 5 to 1440 mins by LC-MS/MS analysis; assay type: ADME, organism-based; settings: in vivo, time 5-1440 min
[30] = Oral bioavailability in Sprague-Dawley rat at 10 mg/kg measured for 5 to 1440 mins by LC-MS/MS analysis; assay type: ADME, organism-based; settings: in vivo, time 5-1440 min
[31] = Half life in rat liver microsomes; assay type: ADME, Microsome
[32] = target: Voltage-gated inwardly rectifying potassium channel KCNH2 (Homo sapiens, UniProt Q12809); experiment: Inhibition of hERG; assay type: toxicity
Cytochrome P450 1A2 = target: T2, Cytochrome P450 1A2 (Homo sapiens, UniProt P05177); experiment: Inhibition of CYP1A2 (unknown origin); assay type: ADME
T2 sequence (P05177 whole entry): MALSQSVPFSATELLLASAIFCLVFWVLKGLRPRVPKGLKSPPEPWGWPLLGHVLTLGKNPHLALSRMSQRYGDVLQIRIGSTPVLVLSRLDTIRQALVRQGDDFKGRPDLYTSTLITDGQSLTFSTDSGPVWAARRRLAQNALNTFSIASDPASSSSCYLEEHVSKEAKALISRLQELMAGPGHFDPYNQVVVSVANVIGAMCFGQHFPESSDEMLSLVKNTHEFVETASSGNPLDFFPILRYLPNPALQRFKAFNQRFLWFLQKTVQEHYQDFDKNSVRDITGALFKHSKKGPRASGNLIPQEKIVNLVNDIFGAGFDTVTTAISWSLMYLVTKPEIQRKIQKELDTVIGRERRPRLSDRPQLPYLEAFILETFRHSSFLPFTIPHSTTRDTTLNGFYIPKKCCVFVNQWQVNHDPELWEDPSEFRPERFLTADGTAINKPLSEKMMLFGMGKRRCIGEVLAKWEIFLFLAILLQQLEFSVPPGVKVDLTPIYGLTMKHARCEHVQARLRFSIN

Cytochrome P450 2C19 = Cytochrome P450 2C19 (Homo sapiens, UniProt P33261); experiment: Inhibition of CYP2C19 (unknown origin); assay type: ADME
Cytochrome P450 2C9 = Cytochrome P450 2C9 (Homo sapiens, UniProt P11712); experiment: Inhibition of CYP2C9 (unknown origin); assay type: ADME
Sequence of Cytochrome P450 2C9 (P11712 whole entry): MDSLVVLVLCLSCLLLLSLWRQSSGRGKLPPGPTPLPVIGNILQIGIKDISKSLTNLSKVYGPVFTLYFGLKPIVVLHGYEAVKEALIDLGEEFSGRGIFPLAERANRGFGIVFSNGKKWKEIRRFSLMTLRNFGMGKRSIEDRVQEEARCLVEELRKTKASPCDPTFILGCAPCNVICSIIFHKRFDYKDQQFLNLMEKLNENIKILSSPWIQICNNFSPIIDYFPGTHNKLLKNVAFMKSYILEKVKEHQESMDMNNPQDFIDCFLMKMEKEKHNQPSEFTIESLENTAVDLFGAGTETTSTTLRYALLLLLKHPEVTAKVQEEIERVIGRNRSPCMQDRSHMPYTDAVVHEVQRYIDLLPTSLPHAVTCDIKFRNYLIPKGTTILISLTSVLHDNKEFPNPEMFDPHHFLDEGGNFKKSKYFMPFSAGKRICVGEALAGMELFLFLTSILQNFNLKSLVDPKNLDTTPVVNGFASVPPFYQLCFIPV

Cytochrome P450 2D6 = Cytochrome P450 2D6 (Homo sapiens, UniProt P10635); experiment: Inhibition of CYP2D6 (unknown origin); assay type: ADME
Cytochrome P450 3A4 = Cytochrome P450 3A4 (Homo sapiens, UniProt P08684); experiment: Inhibition of CYP3A4 (unknown origin); assay type: ADME
[33] = Acute toxicity in mouse assessed as drug tolerance at >1.5 g/kg, po; settings: in vivo, 1500 mg/kg
Rattus norvegicus [34] = experiment: Anti-Pulmonary arterial hypertension in mono-crotaline-treated Sprague-Dawley rat model assessed as decrease in mPAP level at 2.5 mg/kg for 21 days; assay type: functional, organism-based; settings: time 21.0 day
Rattus norvegicus [35] = experiment: Anti-Pulmonary arterial hypertension in mono-crotaline-treated Sprague-Dawley rat model assessed as decrease in mPAP level at 5 mg/kg for 21 days; assay type: functional, organism-based; settings: time 21.0 day
[36] = Toxicity in mono-crotaline-treated Sprague-Dawley rat model of Pulmonary arterial hypertension assessed as body weight change at 2.5 to 5 mg/kg for 21 days; assay type: organism-based; settings: in vivo, 504 h, dose 2.5-5 mg/kg, time 21 day
Rattus norvegicus [37] = experiment: Anti-Pulmonary arterial hypertension in mono-crotaline-treated Sprague-Dawley rat model assessed as decrease in RVHI level at 2.5 to 5 mg/kg for 21 days; assay type: functional, organism-based; settings: dose 2.5-5 mg/kg, time 21.0 day
Rattus norvegicus [38] = experiment: Anti-Pulmonary arterial hypertension in mono-crotaline-treated Sprague-Dawley rat model assessed as decrease in pulmonary arteriole wall thickness at 2.5 to 5 mg/kg for 21 days by H and E staining based analysis; assay type: functional, organism-based; settings: dose 2.5-5 mg/kg, time 21.0 day
[39] = target: T1, cGMP-specific 3',5'-cyclic phosphodiesterase; experiment: Inhibition of PDE5A (unknown origin) using […] as substrate at 1000 nM incubated for 1 hr by fluorescence polarization assay relative to control

## Cc1ccc(-c2c(C#N)c(=O)n(Cc3ccccc3)c3c(NC(C)c4ccccn4)cccc23)cc1 (configuration not stated)
[1]
  IC50: 0.01 µM

## COc1ccc(-c2c(C#N)c(=O)n(Cc3ccccc3)c3c(N[C@H](C)c4ccccn4)cccc23)cc1
[1]
  IC50: 0.003 µM
[2]
  IC50: 10.5 µM
[3]
  IC50: 3.38 µM
[4]
  IC50: > 100 µM
[5]
  IC50: 53.3 µM
[6]
  IC50: 0.02 µM
[7]
  IC50: 25.7 µM
[8]
  IC50: > 100 µM
[9]
  IC50: > 100 µM
[10]
  IC50: 21.2 µM
[11]
  IC50: > 100 µM
[12]
  AUC(0-t): 399 ng·h/mL
[13]
  AUC(0-inf): 399 ng·h/mL
[14]
  MRT last: 0.75 h
[15]
  MRT inf: 0.76 h
[16]
  half-life: 2.25 h
[17]
  Tmax: 4.98 min
[18]
  clearance: 83.3 mL/min/kg
[19]
  Vd: 16.3 L/kg
[20]
  Cmax: 985 ng/mL
[21]
  AUC(0-t): 339 ng·h/mL
[22]
  AUC(0-inf): 340 ng·h/mL
[23]
  MRT last: 6.3 h
[24]
  MRT inf: 6.4 h
[25]
  half-life: 2.79 h
[26]
  Tmax: 4 h
[27]
  CL/F: 525 mL/min/kg
[28]
  Vz: 126.6 L/kg
[29]
  Cmax: 58.4 ng/mL
[30]
  bioavailability: 16.8%
[31]
  half-life: 4.41 min
[32]
  IC50: > 30 µM
Cytochrome P450 1A2
  IC50: > 50 µM
Cytochrome P450 2C19
  IC50: 4.63 µM
Cytochrome P450 2C9
  IC50: 9.76 µM
Cytochrome P450 2D6
  IC50: > 50 µM
Cytochrome P450 3A4
  IC50: > 50 µM
[33]
  Activity: Non-toxic
Rattus norvegicus [34]
  Activity: inactive
Rattus norvegicus [35]
  Activity: Active; The Effect Was Marginally Superior To That Of Sildenafil
[36]
  Activity: Non-toxic
Rattus norvegicus [37]
  Activity: Active
Rattus norvegicus [38]
  Activity: Active

## Cc1ccc(-c2c(C#N)c(=O)n(Cc3ccccc3)c3cc(NC(C)c4ccccn4)ccc23)cc1 (configuration not stated)
[1]
  IC50: 0.578 µM

## Cc1ccc(-c2c(C#N)c(=O)n(Cc3ccccc3)c3c(NCc4ccccn4)cccc23)cc1
[1]
  IC50: 0.02 µM

## COc1ccc(-c2c(C#N)c(=O)n(Cc3ccccc3)c3c(N[C@@H](C)c4ccccn4)cccc23)cc1
[1]
  IC50: 0.008 µM

## Cc1ccc(-c2c(C#N)c(=O)n(Cc3ccc4c(c3)OCO4)c3c(NC(C)c4ccccn4)cccc23)cc1 (configuration not stated)
[1]
  IC50: 0.198 µM

## Cc1ccc(-c2c(C#N)c(=O)n(CC3CC3)c3c(NC(C)c4ccccn4)cccc23)cc1 (configuration not stated)
[39]
  inhibition: 35%

## Cc1ccc(-c2c(C#N)c(=O)n(Cc3ccncc3)c3c(N[C@H](C)c4ccccn4)cccc23)cc1
[1]
  IC50: 0.073 µM

## Cc1ccc(-c2c(C#N)c(=O)n(CC3CCCC3)c3c(NC(C)c4ccccn4)cccc23)cc1 (configuration not stated)
[1]
  IC50: 0.055 µM

## CCCCNc1cccc2c(-c3ccc(C)cc3)c(C#N)c(=O)n(Cc3ccccc3)c12
[1]
  IC50: 0.03 µM
